# Source: patent publication US20080145313A1, “Compositions and Methods for the Treatment and Prevention of Neoplastic Disorders” (Genesis Research & Development Corporation Limited, priority 2006, published 2008)
# Tests used:
# [1] = tested on: target transcript mRNA in A549 cells; assay: Level of mRNA of target transcript in A549 cells by quantitative RT-PCR (Tables 12 and 13); format: cell-based, human; conditions: 24 h post-transfection; for mRNA knockdown of transporter gene target transcript, 0.1 nM: 0.1 nM siRNA; for mRNA knockdown of transporter gene target transcript, 1 nM: 1 nM siRNA; for mRNA knockdown of transporter gene target transcript, 10 nM: 10 nM siRNA
# Method in brief: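 A549 cells were transfected with siRNA at 0.1, 1.0 and 10 nM. RNA was extracted 24 h later, reverse-transcribed with random primers, and target mRNA quantified by SYBR Green qRT-PCR. Values were normalised to housekeeping genes HPRT and Lamin.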
# A549 cells = assay: Growth inhibition of siRNA-transfected A549 cells, SYBR Green I DNA content; format: cell-based, human; conditions: 10 nM siRNA; for Growth Inhibition in A549 cells by 10 nM siRNA / Growth Inhibition in A549 cells: DNA content 96 hours after transfection; for Growth Inhibition in A549 cells by 10 nM siRNA: transporter gene targets
# Method in brief: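 A549 cells reverse-transfected with 10 nM Stealth siRNAs via Lipofectamine RNAiMAX, seeded at 5×10^3 cells/cm^2 in RPMI 1640/10% FCS; non-specific siRNA control. DNA content read 96 h post-transfection by SYBR Green I fluorescence (ex 485/em 535 nm) after freeze-thaw and Triton X-100 lysis; mean of three wells.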
Substance,"mRNA knockdown of transporter gene target transcript, 0.1 nM [1]","mRNA knockdown of transporter gene target transcript, 1 nM [1]",Growth Inhibition in A549 cells by 10 nM siRNA (A549 cells),Growth Inhibition in A549 cells (A549 cells),other results
SEQ ID NO: 4973: siRNA targeting ABCC5 (MRP5) (chain 1 TAAGATGGCAACAACGGGTCCTCCA; chain 2 UAAGAUGGCAACAACGGGUCCUCCA; chemistry not given here; one strand in two spellings),− (<50% mRNA knockdown),− (<50% mRNA knockdown),− (no growth inhibition),,
SEQ ID NO: 4967: siRNA targeting ATP7B (chain 1 AATTCTGGTTAGCAGAAGATAAAGG; chain 2 AAUUCUGGUUAGCAGAAGAUAAAGG; chemistry not given here; one strand in two spellings),− (<50% mRNA knockdown),− (<50% mRNA knockdown),+ (inhibits by at least 50%),,
SEQ ID NO: 4933: siRNA targeting SLC29A1 (ENT1) (chain 1 TGGAGACTGAAACTCCAGATTCCTC; chain 2 UGGAGACUGAAACUCCAGAUUCCUC; chemistry not given here; one strand in two spellings),− (<50% mRNA knockdown),++ (70-90% mRNA knockdown),+ (inhibits by at least 50%),,"mRNA knockdown of transporter gene target transcript, 10 nM [1]: ++ (70-90% mRNA knockdown)"
SEQ ID NO: 4919: siRNA targeting SLC9A1 (NHE1) (chain 1 AAACTCCTCAAAGAGGTGATACAGG; chain 2 AAACUCCUCAAAGAGGUGAUACAGG; chemistry not given here; one strand in two spellings),++ (70-90% mRNA knockdown),++ (70-90% mRNA knockdown),+ (inhibits by at least 50%),,
SEQ ID NO: 4931: siRNA targeting SLC29A1 (ENT1) (chain 1 TTGAAGATGGCACTGAGAGAGTTCC; chain 2 UUGAAGAUGGCACUGAGAGAGUUCC; chemistry not given here; one strand in two spellings),++ (70-90% mRNA knockdown),++ (70-90% mRNA knockdown),++ (inhibits by at least 75%),,"mRNA knockdown of transporter gene target transcript, 10 nM [1]: +++ (>90% mRNA knockdown)"
"SEQ ID NO: 4895: siRNA targeting SLC2A5 (GLUT5) (chain 1 ATGTATGGCATCCAGGACACTGTGT; chain 2 AUGUAUGGCAUCCAGGACACUGUGU; Antisense strand given in DNA and RNA notation, chemistry not given here; one strand in two spellings)",++ (70-90% mRNA knockdown),++ (70-90% mRNA knockdown),− (no growth inhibition),,
SEQ ID NO: 4965: siRNA targeting ATP7A (chain 1 TTATAATGCAGTGTCATCATCTTCC; chain 2 UUAUAAUGCAGUGUCAUCAUCUUCC; chemistry not given here; one strand in two spellings),− (<50% mRNA knockdown),− (<50% mRNA knockdown),− (no growth inhibition),,
SEQ ID NO: 4955: siRNA targeting ATP6V1C1 (chain 1 TTGATTGGATATTTGGCCATGTCCC; chain 2 UUGAUUGGAUAUUUGGCCAUGUCCC; chemistry not given here; one strand in two spellings),+ (50-70% mRNA knockdown),++ (70-90% mRNA knockdown),− (no growth inhibition),,
SEQ ID NO: 4937: siRNA targeting ATP2B1 (PMCA1) (chain 1 ATTTATGTAAGCTTGAACGACTGTC; chain 2 AUUUAUGUAAGCUUGAACGACUGUC; chemistry not given here; one strand in two spellings),++ (70-90% mRNA knockdown),++ (70-90% mRNA knockdown),− (no growth inhibition),,
SEQ ID NO: 4823: siRNA targeting PRPS1 (chain 1 TCAAGATGGCATAAACTCTGGTGGC; chain 2 UCAAGAUGGCAUAAACUCUGGUGGC; chemistry not given here; one strand in two spellings),,,,+ (inhibits by at least 50%),
SEQ ID NO: 4822: siRNA targeting PRPS1 (chain 1 TCCACATTCAGCCTGTCTGCAATGG; chain 2 UCCACAUUCAGCCUGUCUGCAAUGG; chemistry not given here; one strand in two spellings),,,,− (no growth inhibition with any siRNA),
SEQ ID NO: 4818: siRNA targeting PFKL (chain 1 AATGTCTGTCTTCATCTTCTCCGTC; chain 2 AAUGUCUGUCUUCAUCUUCUCCGUC; chemistry not given here; one strand in two spellings),,,,− (no growth inhibition with any siRNA),
SEQ ID NO: 5003: siRNA targeting DPYD (chain 1 GGCTACAAAGCTGCTTTCATTGGAA; chain 2 GGCUACAAAGCUGCUUUCAUUGGAA; chemistry not given here; one strand in two spellings),,,,− (no growth inhibition with any siRNA),
SEQ ID NO: 4846: siRNA targeting FLAD1 (chain 1 TGATGTGTATCCTCGGTCATACAGG; chain 2 UGAUGUGUAUCCUCGGUCAUACAGG; chemistry not given here; one strand in two spellings),,,,− (no growth inhibition with any siRNA),
SEQ ID NO: 4817: siRNA targeting LDHA/5 (chain 1 TATACTCTCTGCCAAATCTGCTACA; chain 2 UAUACUCUCUGCCAAAUCUGCUACA; chemistry not given here; one strand in two spellings),,,,− (no growth inhibition with any siRNA),
SEQ ID NO: 4847: siRNA targeting FLAD1 (chain 1 TGCAATGGTGGCTACCTCATCAGGT; chain 2 UGCAAUGGUGGCUACCUCAUCAGGU; chemistry not given here; one strand in two spellings),,,,− (no growth inhibition with any siRNA),
"SEQ ID NO: 4868: siRNA targeting UQCRC2 (chain 1 TTGCGGTCACACTTAATTTGCCACC; chain 2 UUGCGGUCACACUUAAUUUGCCACC; Both strands are one antisense strand in DNA/RNA notation, chemistry not given here, further chemistry not given here; one strand in two spellings)",,,,+ (inhibits by at least 50%),
SEQ ID NO: 4943: siRNA targeting ATP2B3 (PMCA3) (chain 1 AAACGTCTCAATCACAAAGTAGAGG; chain 2 AAACGUCUCAAUCACAAAGUAGAGG; chemistry not given here; one strand in two spellings),,,− (no growth inhibition),,
"SEQ ID NO: 4872: siRNA targeting RRM2B (chain 1 TTTGACAGCATCAACAATGATCTCC; chain 2 UUUGACAGCAUCAACAAUGAUCUCC; Both strands are one antisense strand in DNA/RNA notation, chemistry not given here, further chemistry not given here; one strand in two spellings)",,,,− (no growth inhibition with any siRNA),"growth inhibition, A549 (A549 cells; up to 120 hours post-transfection (FIG. 8)): No inhibition of growth"
SEQ ID NO: 4807: siRNA targeting ARNT (HIF-1β) (chain 1 TGCACCTGATCATAGAGTGTGCTGC; chain 2 UGCACCUGAUCAUAGAGUGUGCUGC; chemistry not given here; one strand in two spellings),,,,+ (inhibits by at least 50%),
SEQ ID NO: 5002: siRNA targeting DPYD (chain 1 GCCACTGAAGAGGGACCCATTAATA; chain 2 GCCACUGAAGAGGGACCCAUUAAUA; chemistry not given here; one strand in two spellings),,,,− (no growth inhibition with any siRNA),
SEQ ID NO: 4839: siRNA targeting AK1 (chain 1 TTCTGCACGATCTTCTCACACTGGG; chain 2 UUCUGCACGAUCUUCUCACACUGGG; chemistry not given here; one strand in two spellings),,,,− (no growth inhibition with any siRNA),
